The values below come from patent US11667809B2, “Adhesion promoters and compositions for containers and other articles” (SWIMC LLC, priority 2017, dated 2023).

Data set [1] addresses T1, human estrogen receptor (Homo sapiens, UniProt P03372).
T1 sequence (P03372 1-595): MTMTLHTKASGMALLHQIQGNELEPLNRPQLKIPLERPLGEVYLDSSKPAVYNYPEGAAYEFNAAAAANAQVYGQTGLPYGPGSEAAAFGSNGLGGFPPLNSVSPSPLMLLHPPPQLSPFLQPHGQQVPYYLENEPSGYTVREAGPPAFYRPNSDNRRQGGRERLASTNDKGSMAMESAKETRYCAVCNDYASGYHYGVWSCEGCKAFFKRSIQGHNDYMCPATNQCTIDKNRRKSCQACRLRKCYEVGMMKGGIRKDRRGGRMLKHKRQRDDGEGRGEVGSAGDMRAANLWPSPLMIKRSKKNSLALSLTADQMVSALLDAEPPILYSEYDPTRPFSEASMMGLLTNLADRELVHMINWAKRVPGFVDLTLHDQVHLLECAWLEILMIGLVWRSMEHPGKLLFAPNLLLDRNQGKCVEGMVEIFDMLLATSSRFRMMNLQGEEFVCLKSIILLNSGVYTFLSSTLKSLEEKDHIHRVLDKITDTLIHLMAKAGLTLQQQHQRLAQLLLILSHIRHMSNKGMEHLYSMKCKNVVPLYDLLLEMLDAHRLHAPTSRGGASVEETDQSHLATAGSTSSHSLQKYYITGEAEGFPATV
Source text: (§1) The MCF-7 assay uses MCF-7, clone WS8, cells to measure whether and to what extent a substance induces cell proliferation via estrogen receptor (ER)-mediated pathways.

The target of data set [2] is T1, human estrogen receptor. In words: in vitro estrogenic activity assay correlated to the MCF-7 cell proliferation assay. Conditions: suitable in vitro assay whose results are directly correlated to the MCF-7 assay.
Source text: as §1

Molecules are shown by their SMILES. Like-named read-outs stand apart in the source and are kept apart here.

Turning to `CC(C)(C)c1cc(Cc2cc(C(C)(C)C)c(O)c(C(C)(C)C)c2)cc(C(C)(C)C)c1O` [4,4′-methylenebis(2,6-di-t-butylphenol)], on human estrogen receptor [1], the estrogenic activity result is listed as “do not exhibit appreciable estrogenic activity”.

On to `CCCC(c1cc(C(C)(C)C)c(O)cc1C)c1cc(C(C)(C)C)c(O)cc1C` [4,4′butylidenebis(2-t-butyl-5-methylphenol)], for which the estrogenic activity result at human estrogen receptor [2] is “do not exhibit appreciable estrogenic activity”.

Turning to `CC(C)(C)c1cc(O)c(C(C)(C)C)cc1O` [2,5-di-t-butylhydroquinone], the estrogenic activity entry at human estrogen receptor [1] is given as “do not exhibit appreciable estrogenic activity”.

With `Cc1cc(Cc2cc(C)cc(C(C)(C)C)c2O)c(O)c(C(C)(C)C)c1` [2,2′-methylenebis(4-methyl-6-t-butylphenol)], at human estrogen receptor [1], the estrogenic activity result is “do not exhibit appreciable estrogenic activity”.

For the compound `Cc1cc(Cc2cc(C)c(O)c(C)c2)cc(C)c1O` [4,4′-methylenebis(2,6-dimethylphenol)], on human estrogen receptor [2], the estrogenic activity result is on record as “do not exhibit appreciable estrogenic activity”.
